Measured values as given in ChEMBL document CHEMBL1201862, “PubChem BioAssay data set” (2004).
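A five-concentration, 48-hour dose response in 96-well plates underlies each endpoint, interpolated linearly between surrounding concentrations. At the GI50, growth is halved.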 Activity calls are given as the source filed them. Cut-off read from the data, not from the text of the source: active = GI50 up to about 1.1 µM and inactive = higher.

How the values were obtained:
Assay in all cases: inhibition of tumour cell growth, NCI panel, 48 h
HOP-92 = tested on: HOP-92
K562 = tested on: K562
NCI-H226 = tested on: NCI-H226
Hs-578T = tested on: Hs-578T
SK-MEL-5 = tested on: SK-MEL-5
SF-539 = tested on: SF-539
UACC-62 = tested on: UACC-62
MDA-N = tested on: MDA-N
RPMI-8226 = tested on: RPMI-8226
HCT-116 = tested on: HCT-116
SK-OV-3 = tested on: SK-OV-3
NCI/ADR-RES = tested on: NCI/ADR-RES
CAKI-1 = tested on: CAKI-1
M14 = tested on: M14
A498 = tested on: A498
OVCAR-5 = tested on: OVCAR-5
BT-549 = tested on: BT-549
SK-MEL-28 = tested on: SK-MEL-28
MCF7 = tested on: MCF7
CCRF-CEM = tested on: CCRF-CEM
HCC 2998 = tested on: HCC 2998
HCT-15 = tested on: HCT-15
MDA-MB-231 = tested on: MDA-MB-231
UO-31 = tested on: UO-31
UACC-257 = tested on: UACC-257
LOX IMVI = tested on: LOX IMVI
NCI-H23 = tested on: NCI-H23
RXF 393 = tested on: RXF 393
MOLT-4 = tested on: MOLT-4
SF-295 = tested on: SF-295
PC-3 = tested on: PC-3
SK-MEL-2 = tested on: SK-MEL-2
OVCAR-4 = tested on: OVCAR-4
OVCAR-8 = tested on: OVCAR-8
SNB-19 = tested on: SNB-19
KM12 = tested on: KM12
SNB-75 = tested on: SNB-75
SW-620 = tested on: SW-620
OVCAR-3 = tested on: OVCAR-3
ACHN = tested on: ACHN
U-251 = tested on: U-251
786-0 = tested on: 786-0
EKVX = tested on: EKVX
HT-29 = tested on: HT-29
SF-268 = tested on: SF-268
IGROV-1 = tested on: IGROV-1
T47D = tested on: T47D
A549 = tested on: A549
TK-10 = tested on: TK-10
HOP-62 = tested on: HOP-62
SN12C = tested on: SN12C
NCI-H460 = tested on: NCI-H460
DU-145 = tested on: DU-145
HL-60 = tested on: HL-60
Malme-3M = tested on: Malme-3M
NCI-H522 = tested on: NCI-H522
MDA-MB-435 = tested on: MDA-MB-435
COLO 205 = tested on: COLO 205

`COc1cc(-c2c3c([nH]c(=O)c2C#N)-c2cc([N+](=O)[O-])ccc2CCC3)cc(OC)c1OC` was tested, and the GI50 (HOP-92) was 25.4 µM (inactive), the GI50 (K562) was 18.9 µM (inactive) and the GI50 (NCI-H226) was 22.7 µM (inactive). For the same compound, the GI50 (Hs-578T) was 13.3 µM (inactive), the GI50 (SK-MEL-5) was 12.9 µM (inactive) and the GI50 (SF-539) was 24.3 µM (inactive). The GI50 (UACC-62) was 13.3 µM (inactive), the GI50 (MDA-N) was 21.1 µM (inactive) and the GI50 (RPMI-8226) was 9.08 µM (inactive). For the same compound, the GI50 (HCT-116) was 18.8 µM (inactive), the GI50 (SK-OV-3) was 15.5 µM (inactive) and the GI50 (NCI/ADR-RES) was 42.4 µM (inactive). The GI50 (CAKI-1) was 26.9 µM (inactive), the GI50 (M14) was 35.1 µM (inactive) and the GI50 (A498) was 14.2 µM (inactive). For the same compound, the GI50 (OVCAR-5) was 23.7 µM (inactive), the GI50 (BT-549) was 17.5 µM (inactive) and the GI50 (SK-MEL-28) was 43.5 µM (inactive). The GI50 (MCF7) was 17.4 µM (inactive), the GI50 (CCRF-CEM) was 21.7 µM (inactive) and the GI50 (HCC 2998) was 17.2 µM (inactive). The GI50 (HCT-15) was 26.4 µM, the GI50 (MDA-MB-231) was 19.9 µM (inactive) and the GI50 (UO-31) was 19 µM (inactive). For the same compound, the GI50 (UACC-257) was 26.9 µM (inactive), the GI50 (LOX IMVI) was 15.1 µM (inactive) and the GI50 (NCI-H23) was 17.4 µM (inactive). The GI50 (RXF 393) was 22.1 µM (inactive), the GI50 (MOLT-4) was 16 µM (inactive) and the GI50 (SF-295) was 16.1 µM (inactive). For the same compound, the GI50 (PC-3) was 20.2 µM (inactive), the GI50 (SK-MEL-2) was 17.9 µM (inactive) and the GI50 (OVCAR-4) was 21.5 µM (inactive). For the same compound, the GI50 (OVCAR-8) was 17.8 µM (inactive), the GI50 (SNB-19) was 30.8 µM (inactive) and the GI50 (KM12) was 20.2 µM (inactive). For the same compound, the GI50 (SNB-75) was 21.7 µM (inactive), the GI50 (SW-620) was 40.5 µM (inactive) and the GI50 (OVCAR-3) was 15.5 µM (inactive). The GI50 (ACHN) was 21 µM (inactive), the GI50 (U-251) was 23.6 µM (inactive) and the GI50 (786-0) was 24.7 µM (inactive). For the same compound, the GI50 (EKVX) was 24.4 µM (inactive), the GI50 (HT-29) was 37.5 µM (inactive) and the GI50 (SF-268) was 24.2 µM (inactive). The GI50 (IGROV-1) was 33.1 µM (inactive), the GI50 (T47D) was 14.1 µM (inactive) and the GI50 (A549) was 23.8 µM (inactive). For the same compound, the GI50 (TK-10) was 34.8 µM (inactive), the GI50 (HOP-62) was 19.9 µM (inactive) and the GI50 (SN12C) was 16.2 µM (inactive). For the same compound, the GI50 (NCI-H460) was 16.8 µM (inactive), the GI50 (DU-145) was 25.8 µM (inactive) and the GI50 (HL-60) was 21.4 µM (inactive). The GI50 (Malme-3M) was 22.8 µM (inactive), the GI50 (NCI-H522) was 15.6 µM (inactive) and the GI50 (MDA-MB-435) was 25.9 µM (inactive). The GI50 (COLO 205) was 22 µM (inactive).

`COc1ccc(-c2oc3ccc(C)cc3c(=O)c2O)cc1` was tested, and the GI50 (HOP-92) was > 100 µM (inactive), the GI50 (NCI-H226) was > 100 µM (inactive) and the GI50 (Hs-578T) was > 100 µM (inactive). For the same compound, the GI50 (SK-MEL-5) was > 100 µM (inactive), the GI50 (SF-539) was 43.4 µM (inactive) and the GI50 (UACC-62) was > 100 µM (inactive). The GI50 (MDA-N) was > 100 µM (inactive), the GI50 (RPMI-8226) was 9.95 µM (inactive) and the GI50 (HCT-116) was 52 µM (inactive). For the same compound, the GI50 (SK-OV-3) was > 100 µM (inactive), the GI50 (NCI/ADR-RES) was 35.4 µM (inactive) and the GI50 (CAKI-1) was > 100 µM (inactive). For the same compound, the GI50 (M14) was > 100 µM (inactive), the GI50 (A498) was > 100 µM (inactive) and the GI50 (OVCAR-5) was > 100 µM (inactive). The GI50 (BT-549) was > 100 µM (inactive), the GI50 (SK-MEL-28) was > 100 µM (inactive) and the GI50 (MCF7) was > 100 µM (inactive). For the same compound, the GI50 (CCRF-CEM) was > 100 µM (inactive), the GI50 (HCC 2998) was > 100 µM (inactive) and the GI50 (HCT-15) was 24.5 µM. The GI50 (MDA-MB-231) was 71.4 µM (inactive), the GI50 (UO-31) was > 100 µM (inactive) and the GI50 (UACC-257) was > 100 µM (inactive). The GI50 (LOX IMVI) was > 100 µM (inactive), the GI50 (NCI-H23) was > 100 µM (inactive) and the GI50 (RXF 393) was > 100 µM (inactive). For the same compound, the GI50 (MOLT-4) was 58.6 µM (inactive), the GI50 (SF-295) was > 100 µM (inactive) and the GI50 (PC-3) was > 100 µM (inactive). The GI50 (SK-MEL-2) was > 100 µM (inactive), the GI50 (OVCAR-4) was 57.7 µM (inactive) and the GI50 (OVCAR-8) was 23.1 µM (inactive). For the same compound, the GI50 (SNB-19) was 44.4 µM (inactive), the GI50 (KM12) was > 100 µM (inactive) and the GI50 (SNB-75) was 76.7 µM (inactive). The GI50 (SW-620) was > 100 µM (inactive), the GI50 (OVCAR-3) was > 100 µM (inactive) and the GI50 (ACHN) was 31.9 µM (inactive). The GI50 (U-251) was 28.6 µM (inactive), the GI50 (786-0) was 44.3 µM (inactive) and the GI50 (EKVX) was > 100 µM (inactive). For the same compound, the GI50 (HT-29) was > 100 µM (inactive), the GI50 (SF-268) was 45 µM (inactive) and the GI50 (IGROV-1) was > 100 µM (inactive). For the same compound, the GI50 (T47D) was > 100 µM (inactive), the GI50 (A549) was > 100 µM (inactive) and the GI50 (TK-10) was 32.1 µM (inactive). For the same compound, the GI50 (HOP-62) was > 100 µM (inactive), the GI50 (SN12C) was > 100 µM (inactive) and the GI50 (DU-145) was > 100 µM (inactive). For the same compound, the GI50 (HL-60) was 58.7 µM (inactive), the GI50 (Malme-3M) was > 100 µM (inactive) and the GI50 (NCI-H522) was > 100 µM (inactive). For the same compound, the GI50 (MDA-MB-435) was > 100 µM (inactive) and the GI50 (COLO 205) was > 100 µM (inactive).

With `C/C(=N/NC(=S)N1CCN(C(=S)N/N=C(/C)c2ccccn2)CC1)c1ccccn1` the GI50 (HOP-92) was > 46.2 µM (inactive), the GI50 (K562) was 16.3 µM (inactive) and the GI50 (NCI-H226) was 6.89 µM (inactive). The GI50 (Hs-578T) was > 38 µM (inactive), the GI50 (SK-MEL-5) was 6.97 µM (inactive) and the GI50 (SF-539) was 6.4 µM (inactive). For the same compound, the GI50 (UACC-62) was 6.71 µM (inactive), the GI50 (MDA-N) was > 77.8 µM (inactive) and the GI50 (RPMI-8226) was 12.1 µM (inactive). The GI50 (HCT-116) was 6.89 µM (inactive), the GI50 (SK-OV-3) was 8.3 µM (inactive) and the GI50 (NCI/ADR-RES) was 4.16 µM (inactive). For the same compound, the GI50 (CAKI-1) was 6.56 µM (inactive), the GI50 (M14) was 4.47 µM (inactive) and the GI50 (A498) was 8.81 µM (inactive). The GI50 (OVCAR-5) was > 66.8 µM (inactive), the GI50 (BT-549) was 15.9 µM (inactive) and the GI50 (SK-MEL-28) was 14.3 µM (inactive). For the same compound, the GI50 (MCF7) was 5.24 µM (inactive), the GI50 (CCRF-CEM) was 0.682 µM (active) and the GI50 (HCC 2998) was 22.5 µM (inactive). For the same compound, the GI50 (HCT-15) was 2.15 µM, the GI50 (MDA-MB-231) was 45.2 µM (inactive) and the GI50 (UO-31) was 2.69 µM (inactive). For the same compound, the GI50 (UACC-257) was 16.3 µM (inactive), the GI50 (LOX IMVI) was 5.94 µM (inactive) and the GI50 (NCI-H23) was 10.1 µM (inactive). The GI50 (RXF 393) was 3.52 µM (inactive), the GI50 (MOLT-4) was 4.79 µM (inactive) and the GI50 (SF-295) was 6.25 µM (inactive). The GI50 (PC-3) was 14.3 µM (inactive), the GI50 (SK-MEL-2) was > 100 µM (inactive) and the GI50 (OVCAR-4) was 8.2 µM (inactive). The GI50 (OVCAR-8) was 4.13 µM (inactive), the GI50 (SNB-19) was 11.7 µM (inactive) and the GI50 (KM12) was 16.5 µM (inactive). For the same compound, the GI50 (SNB-75) was 15.1 µM (inactive), the GI50 (SW-620) was 7 µM (inactive) and the GI50 (OVCAR-3) was 3.01 µM (inactive). For the same compound, the GI50 (ACHN) was 2.52 µM (inactive), the GI50 (U-251) was 8.89 µM (inactive) and the GI50 (786-0) was 6.87 µM (inactive). The GI50 (EKVX) was 15.6 µM (inactive), the GI50 (HT-29) was 7.33 µM (inactive) and the GI50 (SF-268) was 3.03 µM (inactive). The GI50 (IGROV-1) was 17.7 µM (inactive), the GI50 (T47D) was 3.52 µM (inactive) and the GI50 (A549) was 9.12 µM (inactive). For the same compound, the GI50 (TK-10) was 4.84 µM (inactive), the GI50 (HOP-62) was 10 µM (inactive) and the GI50 (SN12C) was 8.65 µM (inactive). For the same compound, the GI50 (NCI-H460) was 2.99 µM (inactive), the GI50 (DU-145) was 5.86 µM (inactive) and the GI50 (HL-60) was 0.352 µM (active). For the same compound, the GI50 (Malme-3M) was 4.6 µM (inactive), the GI50 (NCI-H522) was 7.64 µM (inactive) and the GI50 (MDA-MB-435) was 28 µM (inactive). The GI50 (COLO 205) was 4.16 µM (inactive).
